Measurements published in patent US20150017667A1, “MEANS AND METHODS FOR ASSESSING LIVER DISORDERS” (BASF SE, priority 2012, published 2015).
Where two headings read alike, the source gives them in different places. Marks after values point to notes of the source that are not given here.

Assays:
male rats = assay: 28-day repeated dose oral toxicity study (OECD 407) with GC-MS/LC-MS plasma metabolite profiling, male rats; type: in vivo, rat
Text: Drinking water was also offered ad libitum.
The samples were centrifuged for generation of plasma.

female rats [1] = details: rat, in vivo
Protocol: (§1) A group of each 5 male and female rats was dosed once daily with the indicated compounds (see Table 5, below for compounds, applied doses and administeration details) over 28 days.
(§2) Each dose group in the studies consisted of five rats per sex. Additional groups of each 5 male and female animals served as controls. Before starting the treatment period, animals, which were 62-64 days old when supplied, were acclimatized to the housing and environmental conditions for 7 days. All animals of the animal population were kept under the same constant temperature (20-24±3° C.) and the same constant humidity (30-70%). The animals of the animal population were fed ad libitum. The food to be used was essentially free of chemical or microbial contaminants. Drinking water was also offered ad libitum. Accordingly, the water was free of chemical and microbial contaminants as laid down in the European Drinking Water Directive 98/83/EG. The illumination period was 12 hours light followed by 12 hours darkness (12 hours light, from 6:00 to 18:00, and 12 hours darkness, from 18:00 to 6:00).
(§3) In the morning of day 7, 14, and 28, blood was taken from the retroorbital venous plexus from fasted anaesthetized animals. From each animal, 1 ml of blood was collected with EDTA as anticoagulant. The samples were centrifuged for generation of plasma. All plasma samples were covered with a N2 atmosphere and then stored at −80° C. until analysis.
(§4) For mass spectrometry-based metabolite profiling analyses plasma samples were extracted and a polar and a non-polar (lipid) fraction was obtained. For GC-MS analysis, the non-polar fraction was treated with methanol under acidic conditions to yield the fatty acid methyl esters. Both fractions were further derivatised with O-methyl-hydroxyamine hydrochloride and pyridine to convert Oxogroups to O-methyloximes and subsequently with a silylating agent before analysis. In LC-MS analysis, both fractions were reconstituted in appropriate solvent mixtures. HPLC was performed by gradient elution on reversed phase separation columns.
(§5) Following comprehensive analytical validation steps, the data for each analyte were normalized against data from pool samples. These samples were run in parallel through the whole process to account for process variability. The significance of treatment group values specific for sex, treatment duration and metabolite was determined by comparing means of the treated groups to the means of the respective untreated control groups using WELCH-test and quantified with treatment ratios versus control and p-values.

female rats [2] = assay: 28-day repeated dose oral toxicity study (OECD 407) with GC-MS/LC-MS plasma metabolite profiling, female rats
Protocol: as §1, §2, §3, §4, §5

In the case of `CC/C(=C(\c1ccccc1)c1ccc(OCCN(C)C)cc1)c1ccccc1` [Tamoxifen], the “16-Methylheptadecanoic acid change in plasma” value (male rats; m7) is reported as 0.58*, the “17-Methyloctadecanoic acid change in plasma” value (male rats; m7) is reported as 0.61* and the “Campesterol change in plasma” value (male rats; m7) is reported as 0.59*. The “Lysophosphatidylcholine (C18:1) change in plasma” value (male rats; m7) was 0.78*, the “Myristic acid (C14:0) change in plasma” value (male rats; m7) was 0.65* and the “PC No 04 (putative) change in plasma” value (male rats; m7) was 0.44*. The “Palmitoleic acid (C16:cis[9]1) change in plasma” value (male rats; m7) was 0.57*, the “Phosphatidylcholine (C16:0,C20:4) change in plasma” value (male rats; m7) was 0.87* and the “Phosphatidylcholine (C16:1,C18:2) change in plasma” value (male rats; m7) was 0.76*. The “Phosphatidylcholine (C18:1,C18:2) change in plasma” value (male rats; m7) was 0.79*, the “Phosphatidylcholine No 02 change in plasma” value (male rats; m7) was 0.53* and the “Sphingomyelin (d18:1,C16:0) change in plasma” value (male rats; m7) was 0.66*. For the same molecule, the “Tyrosine change in plasma” value (male rats; m7) was 0.77*, the “Unknown lipid (28000473) change in plasma” value (male rats; m7) was 0.31* and the “Unknown lipid (68000034) change in plasma” value (male rats; m7) was 0.74*. For the same molecule, the “Uracil change in plasma” value (male rats; m7) was 0.86*, the “beta-Sitosterol change in plasma” value (male rats; m7) was 0.75* and the “Lysophosphatidylcholine (C20:4) change in plasma” value (male rats; m7, first of two rows with this name (r24)) was 0.90*. The “Lysophosphatidylcholine (C20:4) change in plasma” value (male rats; m7, second of two rows with this name (r25)) was 0.77*, the “16-Methylheptadecanoic acid change in plasma” value (male rats; m14) was 0.60* and the “17-Methyloctadecanoic acid change in plasma” value (male rats; m14) was 0.64*. The “Campesterol change in plasma” value (male rats; m14) was 0.74*, the “Lysophosphatidylcholine (C18:1) change in plasma” value (male rats; m14) was 0.84* and the “Myristic acid (C14:0) change in plasma” value (male rats; m14) was 0.60*. The “PC No 04 (putative) change in plasma” value (male rats; m14) was 0.56*, the “Palmitoleic acid (C16:cis[9]1) change in plasma” value (male rats; m14) was 0.43* and the “Phosphatidylcholine (C16:0,C20:4) change in plasma” value (male rats; m14) was 0.96*. The “Phosphatidylcholine (C16:1,C18:2) change in plasma” value (male rats; m14) was 0.69*, the “Phosphatidylcholine (C18:1,C18:2) change in plasma” value (male rats; m14) was 0.83* and the “Phosphatidylcholine No 02 change in plasma” value (male rats; m14) was 0.60*. For the same molecule, the “Sphingomyelin (d18:1,C16:0) change in plasma” value (male rats; m14) was 0.73*, the “Tyrosine change in plasma” value (male rats; m14) was 0.85* and the “Unknown lipid (28000473) change in plasma” value (male rats; m14) was 0.46*. For the same molecule, the “Unknown lipid (68000034) change in plasma” value (male rats; m14) was 0.59*, the “Uracil change in plasma” value (male rats; m14) was 0.75* and the “beta-Sitosterol change in plasma” value (male rats; m14) was 0.83*. The “Lysophosphatidylcholine (C20:4) change in plasma” value (male rats; m14, first of two rows with this name (r24)) was 0.89*, the “Lysophosphatidylcholine (C20:4) change in plasma” value (male rats; m14, second of two rows with this name (r25)) was 0.79* and the “16-Methylheptadecanoic acid change in plasma” value (male rats; m28) was 0.48*. The “17-Methyloctadecanoic acid change in plasma” value (male rats; m28) was 0.48*, the “Campesterol change in plasma” value (male rats; m28) was 0.55* and the “Lysophosphatidylcholine (C18:1) change in plasma” value (male rats; m28) was 0.81*. For the same molecule, the “Myristic acid (C14:0) change in plasma” value (male rats; m28) was 0.61*, the “PC No 04 (putative) change in plasma” value (male rats; m28) was 0.54* and the “Palmitoleic acid (C16:cis[9]1) change in plasma” value (male rats; m28) was 0.32*. The “Phosphatidylcholine (C16:0,C20:4) change in plasma” value (male rats; m28) was 0.97*, the “Phosphatidylcholine (C16:1,C18:2) change in plasma” value (male rats; m28) was 0.74* and the “Phosphatidylcholine (C18:1,C18:2) change in plasma” value (male rats; m28) was 0.99. For the same molecule, the “Phosphatidylcholine No 02 change in plasma” value (male rats; m28) was 0.62*, the “Sphingomyelin (d18:1,C16:0) change in plasma” value (male rats; m28) was 0.71* and the “Tyrosine change in plasma” value (male rats; m28) was 0.86. For the same molecule, the “Unknown lipid (28000473) change in plasma” value (male rats; m28) was 0.37*, the “Unknown lipid (68000034) change in plasma” value (male rats; m28) was 0.45* and the “Uracil change in plasma” value (male rats; m28) was 0.79*. For the same molecule, the “beta-Sitosterol change in plasma” value (male rats; m28) was 0.73*, the “Lysophosphatidylcholine (C20:4) change in plasma” value (male rats; m28, first of two rows with this name (r24)) was 0.88* and the “Lysophosphatidylcholine (C20:4) change in plasma” value (male rats; m28, second of two rows with this name (r25)) was 0.70*. The “3-Methoxytyrosine, ratio versus control” value (male rats; plasma, day 7) was 1.17*, the “Serine, ratio versus control” value (male rats; plasma, day 7) was 1.17* and the “Xylitol, ratio versus control” value (male rats; plasma, day 7) was 1.57*. The “Threonine, ratio versus control” value (male rats; plasma, day 7 (Table 7c)) was 0.96, the “3-Methoxytyrosine, ratio versus control” value (male rats; plasma, day 14) was 1.31* and the “Xylitol, ratio versus control” value (male rats; plasma, day 14) was 2.05*. For the same molecule, the “Threonine, ratio versus control” value (male rats; plasma, day 14 (Table 7c)) was 1.22*, the “3-Methoxytyrosine, ratio versus control” value (male rats; plasma, day 28) was 1.39* and the “Xylitol, ratio versus control” value (male rats; plasma, day 28) was 1.75*. For the same molecule, the “Threonine, ratio versus control” value (male rats; plasma, day 28 (Table 7c)) was 1.10*, the “Threonine, ratio versus control” value (female rats [1]) was 1.05* and the “3-Methoxytyrosine, ratio versus control” value (female rats [2]; day 7) was 1.26*. The “16-Methylheptadecanoic acid, ratio versus control” value (female rats [2]; day 7) was 0.73*, the “17-Methyloctadecanoic acid, ratio versus control” value (female rats [2]; day 7) was 0.80* and the “Ketoleucine, ratio versus control” value (female rats [2]; day 7) was 0.92. The “Normetanephrine, ratio versus control” value (female rats [2]; day 7) was 0.84, the “Palmitoleic acid (C16:cis[9]1), ratio versus control” value (female rats [2]; day 7) was 0.91 and the “Phosphatidylcholine (C18:0,C20:3), ratio versus control” value (female rats [2]; day 7) was 0.81*. For the same molecule, the “TAG (C18:1,C18:2,C18:3), ratio versus control” value (female rats [2]; day 7) was 2.78*, the “TAG (C42:9) (DAG-Fragment) (putative), ratio versus control” value (“TAG … (putative), ratio versus control” below) (female rats [2]; day 7) was 0.56* and the “Threonine, ratio versus control” value (female rats [2]; day 7) was 1.17*. The “Uracil, ratio versus control” value (female rats [2]; day 7) was 0.86*, the “Xylitol, ratio versus control” value (female rats [2]; day 7) was 1.29* and the “TAG (C18:2,C18:2), ratio versus control” value (female rats [2]; day 7 (Table 7a)) was 3.21*. For the same molecule, the “Lysophosphatidylcholine (C20:4), ratio versus control” value (female rats [2]; day 7 (first line of this name, r15)) was 0.92*, the “Lysophosphatidylcholine (C20:4), ratio versus control” value (female rats [2]; day 7 (second line of this name, r16)) was 0.88* and the “3-Methoxytyrosine, ratio versus control” value (female rats [2]; day 14) was 1.61*. The “16-Methylheptadecanoic acid, ratio versus control” value (female rats [2]; day 14) was 0.97, the “17-Methyloctadecanoic acid, ratio versus control” value (female rats [2]; day 14) was 0.92 and the “Ketoleucine, ratio versus control” value (female rats [2]; day 14) was 0.71*. For the same molecule, the “Normetanephrine, ratio versus control” value (female rats [2]; day 14) was 1.15, the “Palmitoleic acid (C16:cis[9]1), ratio versus control” value (female rats [2]; day 14) was 0.69* and the “Phosphatidylcholine (C18:0,C20:3), ratio versus control” value (female rats [2]; day 14) was 0.89*. For the same molecule, the “TAG (C18:1,C18:2,C18:3), ratio versus control” value (female rats [2]; day 14) was 2.96*, the “TAG … (putative), ratio versus control” value (female rats [2]; day 14) was 0.65* and the “Uracil, ratio versus control” value (female rats [2]; day 14) was 0.86*. The “Xylitol, ratio versus control” value (female rats [2]; day 14) was 1.63*, the “TAG (C18:2,C18:2), ratio versus control” value (female rats [2]; day 14 (Table 7a)) was 2.84* and the “Lysophosphatidylcholine (C20:4), ratio versus control” value (female rats [2]; day 14 (first line of this name, r15)) was 0.96*. For the same molecule, the “Lysophosphatidylcholine (C20:4), ratio versus control” value (female rats [2]; day 14 (second line of this name, r16)) was 0.84*, the “3-Methoxytyrosine, ratio versus control” value (female rats [2]; day 28) was 1.38* and the “16-Methylheptadecanoic acid, ratio versus control” value (female rats [2]; day 28) was 0.78*. The “17-Methyloctadecanoic acid, ratio versus control” value (female rats [2]; day 28) was 0.89*, the “Ketoleucine, ratio versus control” value (female rats [2]; day 28) was 0.77* and the “Normetanephrine, ratio versus control” value (female rats [2]; day 28) was 0.89. For the same molecule, the “Palmitoleic acid (C16:cis[9]1), ratio versus control” value (female rats [2]; day 28) was 0.60*, the “Phosphatidylcholine (C18:0,C20:3), ratio versus control” value (female rats [2]; day 28) was 0.88* and the “TAG (C18:1,C18:2,C18:3), ratio versus control” value (female rats [2]; day 28) was 2.18*. The “TAG … (putative), ratio versus control” value (female rats [2]; day 28) was 0.81*, the “Threonine, ratio versus control” value (female rats [2]; day 28) was 0.98 and the “Uracil, ratio versus control” value (female rats [2]; day 28) was 0.64*. For the same molecule, the “Xylitol, ratio versus control” value (female rats [2]; day 28) was 1.71*, the “TAG (C18:2,C18:2), ratio versus control” value (female rats [2]; day 28 (Table 7a)) was 2.20* and the “Lysophosphatidylcholine (C20:4), ratio versus control” value (female rats [2]; day 28 (first line of this name, r15)) was 0.91*. The “Lysophosphatidylcholine (C20:4), ratio versus control” value (female rats [2]; day 28 (second line of this name, r16)) was 0.81*.
